From US5852007A, “Cysteine and serine protease inhibitors containing D-amino acid at the P2 position, methods of making same, and methods of using same” (priority 1997, dated 1998)
Like-named read-outs stand apart in the source and are kept apart here. Square brackets hold non-standard residues; d marks the D form. Peptide text beside a SMILES is read from it. * marks the point of attachment. Cbz = O=C(OCc1ccccc1)*; Bn = c1ccc(C*)cc1; Ms = CS(=O)(=O)*

Experiments:
Format in all cases: biochemical
thrombin = target: T1, thrombin (Homo sapiens, UniProt P00734); experiment: Inhibition of thrombin; settings: read-out: Thrombin % I @ 10 uM
T1 construct: purchased Sigma Chem. Co. T-7009

[1] = target: T2, Recombinant human calpain I (Homo sapiens, UniProt P07384); experiment: Inhibition of calpain I activity; settings: Table III
T2 construct: made in house
T2 sequence (P07384 1-714): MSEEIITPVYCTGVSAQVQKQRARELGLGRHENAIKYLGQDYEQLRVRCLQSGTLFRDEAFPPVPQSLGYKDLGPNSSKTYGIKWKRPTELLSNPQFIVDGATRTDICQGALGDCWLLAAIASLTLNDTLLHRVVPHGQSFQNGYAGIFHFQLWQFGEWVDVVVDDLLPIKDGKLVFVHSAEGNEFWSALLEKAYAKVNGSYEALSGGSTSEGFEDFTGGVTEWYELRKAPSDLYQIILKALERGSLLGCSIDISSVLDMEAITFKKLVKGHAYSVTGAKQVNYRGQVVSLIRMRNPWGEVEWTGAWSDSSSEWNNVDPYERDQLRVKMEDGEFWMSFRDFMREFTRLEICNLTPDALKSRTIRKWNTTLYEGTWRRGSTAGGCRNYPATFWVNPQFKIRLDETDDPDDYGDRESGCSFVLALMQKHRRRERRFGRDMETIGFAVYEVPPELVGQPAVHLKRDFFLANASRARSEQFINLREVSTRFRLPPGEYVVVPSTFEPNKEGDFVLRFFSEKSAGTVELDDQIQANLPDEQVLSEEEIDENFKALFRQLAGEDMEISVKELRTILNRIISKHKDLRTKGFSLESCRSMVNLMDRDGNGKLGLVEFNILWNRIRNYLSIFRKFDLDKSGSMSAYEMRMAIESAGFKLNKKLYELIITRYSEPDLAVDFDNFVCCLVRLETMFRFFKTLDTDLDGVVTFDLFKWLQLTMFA
Method: To evaluate inhibitory activity, stock solutions (40 times concentrated) of exemplary compounds of the invention were prepared in 100% anhydrous DMSO and 5 μL of each inhibitor preparation were aliquoted into each of three wells of a 96-well plate. Recombinant human calpain I, prepared by the method of Meyer et al. (Biochem. […] To start the reaction, 20 μL of 50 mM CaCl2 in assay buffer was added to all wells of the plate, excepting three, which were used as background signal baseline controls. Substrate hydrolysis was monitored every 5 minutes for a total of 30 minutes. […] Inhibition of calpain I activity was calculated as the percent decrease in the rate of substrate hydrolysis in the presence of inhibitor (VI) relative to the rate in its absence (VO). Comparison between VO and VI was made within the linear range for substrate hydrolysis. For screening, compounds were tested at 10, 1.0, and 0.1 μM. […] The results were plotted as % inhibition versus log inhibitor concentration and the IC50 was calculated from linear regression of the data. Apparent second order rate constants were determined from analysis of reaction progress curves under pseudo-first order conditions. Each determination represents the means of three or more independent single cuvette analyses continually monitored via a Perkin-Elmer LS50B spectrofluorimeter. The rate of inhibition of hydrolysis was obtained by fitting the curve to the exponential equation (1): […]

α-chymotrypsin = target: T3, α-chymotrypsin (Bos taurus, UniProt P00766); experiment: Inhibition of α-chymotrypsin; settings: read-out: Chymotrypsin % I @ 10 uM
T3 construct: purchased Sigma Chem. Co. C-3142
Method: Additionally, because α-chymotrypsin is not a calcium sensitive enzyme and is constitutively active, following addition of inhibitor stocks to the 96 well plates, 100 μl of a 2-fold concentrated stock of enzyme in dilution buffer was first added and the reaction started by addition of 100 μl of a 2-fold concentrated stock of substrate in assay buffer. Substrate hydrolysis was monitored every 5 minutes up to 30 minutes using a Fluoroskan II ([…]).

cathepsin L = target: T4, cathepsin L (Homo sapiens, UniProt P07711); experiment: Inhibition of cathepsin L; settings: read-out: Cat L % I @ 1 uM
T4 construct: purchased Calbiochem 219402
T4 sequence (P07711 114-288 limits assumed): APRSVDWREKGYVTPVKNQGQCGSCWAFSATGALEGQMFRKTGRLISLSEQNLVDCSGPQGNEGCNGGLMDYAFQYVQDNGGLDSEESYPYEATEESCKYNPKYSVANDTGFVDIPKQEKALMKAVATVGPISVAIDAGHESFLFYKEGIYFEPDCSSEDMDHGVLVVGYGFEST
T4 sequence (P07711 292-333 limits assumed): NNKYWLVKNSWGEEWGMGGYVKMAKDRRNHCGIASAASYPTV
Method: (§1) Additionally,the order of reagents added to the plate was altered because both enzymes are constitutively active. Following inhibitor addition to the plates, appropriate 2× concentrated stock dilutions of the enzyme preparations were made in assay buffer and 100 μl added to each well. The assay was initiated by addition of 100 μl of 2× concentrated stock dilution of substrate in assay buffer.

cathepsin B = target: T5, cathepsin B (Homo sapiens, UniProt P07858); experiment: Inhibition of cathepsin B; settings: for inhibition at 1 µM: read-out: Cat B % I @ 1 uM
T5 construct: purchased Calbiochem 219364
Method: as §1

## CC(C)C[C@@H](NC(=O)OCc1ccccc1)C(=O)N[C@H](C=O)Cc1ccccc1 [Compound 85] (Cbz-[dL]-Phe-aldehyde)
thrombin
  inhibition at 10 µM: 0%
[1]
  IC50: 0.11 µM
  inhibition at 0.1 µM: 44%
α-chymotrypsin
  inhibition at 10 µM: 6%
Cathepsin L
  inhibition at 1 µM: 89%
Cathepsin B
  inhibition at 1 µM: 44%

## CC(C)C[C@@H](NS(C)(=O)=O)C(=O)N[C@H](C=O)Cc1ccccc1 [Compound 86] (Ms-[dL]-Phe-aldehyde)
thrombin; Table III, 10 uM
  inhibition at 10 µM: 0%
[1]
  IC50: 0.04 µM
  inhibition at 0.1 µM: 72%
α-chymotrypsin; Table III, 10 uM
  inhibition at 10 µM: 8%
Cathepsin L; Table III, 1 uM
  inhibition at 1 µM: 100%
Cathepsin B; Table III, 1 uM
  inhibition at 1 µM: 78%

## CC(C)C[C@@H](C=O)NC(=O)[C@@H](COCc1ccccc1)NS(C)(=O)=O [Compound 88] (Ms-[dS](Bn)-Leu-aldehyde)
thrombin; Table III, 10 uM
  inhibition at 10 µM: 5%
[1]
  IC50: 0.093 µM
  inhibition at 0.1 µM: 40%
α-chymotrypsin; Table III, 10 uM
  inhibition at 10 µM: 0%
Cathepsin L; Table III, 1 uM
  inhibition at 1 µM: 91%
Cathepsin B; Table III, 1 uM
  inhibition at 1 µM: 88%

## CS(=O)(=O)N[C@H](Cc1ccc(OCc2ccccc2)cc1)C(=O)N[C@H](C=O)Cc1ccccc1 [Compound 89] (Ms-[dY](Bn)-Phe-aldehyde)
thrombin; Table III, 10 uM
  inhibition at 10 µM: 0%
[1]
  IC50: 0.015 µM
  inhibition at 0.1 µM: 82%
α-chymotrypsin; Table III, 10 uM
  inhibition at 10 µM: 4%
Cathepsin L; Table III, 1 uM
  inhibition at 1 µM: 97%
Cathepsin B; Table III, 1 uM
  inhibition at 1 µM: 100%

## CS(=O)(=O)N[C@H](COCc1ccccc1)C(=O)N[C@H](C=O)Cc1ccc(OCc2ccccc2)cc1 [Compound 90] (Ms-[dS](Bn)-Tyr(Bn)-aldehyde)
thrombin; Table III, 10 uM
  inhibition at 10 µM: 0%
[1]
  IC50: 0.005 µM
  inhibition at 0.1 µM: 99%
α-chymotrypsin; Table III, 10 uM
  inhibition at 10 µM: 0%
Cathepsin L; Table III, 1 uM
  inhibition at 1 µM: 99%
Cathepsin B; Table III, 1 uM
  inhibition at 1 µM: 100%

## Cc1nn(C)c(Cl)c1S(=O)(=O)N[C@H](COCc1ccccc1)C(=O)N[C@H](C=O)Cc1ccccc1 [Compound 91]
thrombin; Table III, 10 uM
  inhibition at 10 µM: 0%
[1]
  inhibition at 0.1 µM: 30%
α-chymotrypsin; Table III, 10 uM
  inhibition at 10 µM: 53%
Cathepsin L; Table III, 1 uM
  inhibition at 1 µM: 100%
Cathepsin B; Table III, 1 uM
  inhibition at 1 µM: 68%

## CS(=O)(=O)N[C@H](COCc1ccccc1)C(=O)N[C@H](C=O)CCCCNC(=O)OCc1ccccc1 [Compound 92]
thrombin; Table III, 10 uM
  inhibition at 10 µM: 0%
[1]
  IC50: 0.004 µM
  inhibition at 0.1 µM: 100%
α-chymotrypsin; Table III, 10 uM
  inhibition at 10 µM: 0%
Cathepsin L; Table III, 1 uM
  inhibition at 1 µM: 100%
Cathepsin B; Table III, 1 uM
  inhibition at 1 µM: 100%

## CC(C)(C)OC(=O)NCCCC[C@@H](C=O)NC(=O)[C@@H](COCc1ccccc1)NS(C)(=O)=O [Compound 93]
thrombin; Table III, 10 uM
  inhibition at 10 µM: 0%
[1]
  IC50: 0.009 µM
  inhibition at 0.1 µM: 95%
α-chymotrypsin; Table III, 10 uM
  inhibition at 10 µM: 0%
Cathepsin L; Table III, 1 uM
  inhibition at 1 µM: 100%
Cathepsin B; Table III, 1 uM
  inhibition at 1 µM: 99%

## O=C[C@H](Cc1ccccc1)NC(=O)[C@@H](COCc1ccccc1)N1C(=O)c2ccccc2C1=O [Compound 94]
thrombin; Table III, 10 uM
  inhibition at 10 µM: 0%
[1]
  inhibition at 0.1 µM: 14%
α-chymotrypsin; Table III, 10 uM
  inhibition at 10 µM: 1%
Cathepsin L; Table III, 1 uM
  inhibition at 1 µM: 93%
Cathepsin B; Table III, 1 uM
  inhibition at 1 µM: 0%

## CS(=O)(=O)N[C@H](C(=O)N[C@H](C=O)Cc1ccccc1)c1cccs1 [Compound 97]
thrombin; Table III, 10 uM
  inhibition at 10 µM: 4%
[1]
  IC50: 0.037 µM
  inhibition at 0.1 µM: 79%
α-chymotrypsin; Table III, 10 uM
  inhibition at 10 µM: 25%
Cathepsin L; Table III, 1 uM
  inhibition at 1 µM: 100%
Cathepsin B; Table III, 1 uM
  inhibition at 1 µM: 89%

## CS(=O)(=O)N[C@@H](C(=O)N[C@H](C=O)Cc1ccccc1)c1cccs1 [Compound 98]
thrombin; Table III, 10 uM
  inhibition at 10 µM: 16%
[1]
  IC50: 0.008 µM
  inhibition at 0.1 µM: 96%
α-chymotrypsin; Table III, 10 uM
  inhibition at 10 µM: 49%
Cathepsin L; Table III, 1 uM
  inhibition at 1 µM: 100%
Cathepsin B; Table III, 1 uM
  inhibition at 1 µM: 98%
Cathepsin B; Table III, read-out: Cat B IC50
  IC50: 0.016 µM
